Source: patent publication US20150284375A1 (AJINOMOTO CO., INC., priority 2012, published 2015)
Like-named read-outs stand apart in the source and are kept apart here.

Molecular target: T1, human TRPA1 (Homo sapiens, UniProt O75762)
T1 construct: expressed in transfected cells; host or cells: Human embryonic kidney-derived 293T cells, transiently transfected with the pcDNA3.1/zeo(+) human TRPA1 plasmid
Assay: Measurement of TRPA1 antagonist activity (intracellular calcium increase, FLIPR, allylisothiocyanate stimulation)
Type: cell-based
Conditions: read-out: antagonism hTRPA1
Text: Measurement of TRPA1 Antagonist Activity
Human TRPA1 Expression Plasmid
As cDNA encoding human TRPA1 (GenBank accession No. […]), a commercially available product was purchased (manufactured by Kazusa DNA Research Institute, clone No.: pFN21AB7348, item No.: FHC07217). Using this as a template, full-length human TRPA1 gene was amplified using the primer sequences shown below, by reaction using DNA polymerase (manufactured by Stratagene, trade name: PfuUltra High-Fidelity DNA Polymerase).
A recognition site (underlined) of restriction enzyme HindIII was added to the 5′ side, and XbaI site (underlined) was added to the 3′ side, and GTT of the template sequence was changed to termination codon TAG (bold). The obtained double stranded DNA was enzyme-digested with HindIII and XbaI, and introduced into a multicloning site of expression plasmid pcDNA3.1/zeo(+) (manufactured by Invitrogen) to give a human TRPA1 expression plasmid.
Human embryonic kidney-derived 293T cells were cultured in Dulbecco's Modified Eagle Medium containing 10% fetal bovine serum, 10 unit penicillin, and 10 μg streptomycin, plated on a petri dish having a diameter of 10 cm at 3×10^6 cells, and cultured for 24 hr. A medium containing a reduced amount of serum (manufactured by Invitrogen, trade name: OPTI-MEM, 600 μL), a gene insertion reagent (manufactured by Mirus Bio, trade name: Mirus TransIT-293, 18 μL), and human TRPA1 expression plasmid (6 μg) were mixed, the total amount of the mixture was added to the cells on the petri dish to allow for gene transfer. The cells were recovered about 8 hr later, plated on a poly-D-lysine coated 384 well black/clear bottom plate at 7,500-12,000 cells/well, and cultured overnight.
Measurement of Intracellular Calcium Increase
The 384 well plate was recovered, and the medium was removed. A calcium-bonded fluorescent indicator (manufactured by Molecular Device, trade name: Calcium4 Assay Kit, 40 μL) dissolved in assay buffer (1×HBSS, 20 mM HEPES, pH 7.2) was added, and the cells were stained in a 37° C. incubator for 1 hr. The cells were taken out at room temperature and left standing for 15 min or more. A test substance (10 μL) was added by a 384 well type dispenser, and the mixture was incubated at room temperature for 10 min. Then, allylisothiocyanate (12.5 μL) at a final concentration of 20 μM was added by a fluorescence imaging plate reader (manufactured by Molecular Device, FLIPR), and changes in the relative fluorescence intensity were measured for 5 min.
Test Substance Preparation
The test substance was dissolved in dimethyl sulfoxide and serially diluted with an assay buffer containing 0.1% bovine serum albumin (1×HBSS, 20 mM HEPES, pH 7.2) to a 5-fold concentration of the evaluation concentration. Allylisothiocyanate, which is a known TRPA1 activator, was dissolved in dimethyl sulfoxide to 100 mM, and further diluted 5-fold (100 μM) of the final concentration, like the test substance.
Calculation of Antagonist Activity
Under the test substance-free conditions, the maximum variation range of the fluorescence intensity before and after allylisothiocyanate stimulation was defined to be 100% activity rate, and the variation range before and after buffer stimulation was defined as 0% activity rate. The activity rate on addition of the test substance was determined, and the numerical value obtained by subtracting the activity rate from 100 was defined to be an inhibitory rate. 1050, which is the concentration of the test substance necessary for reaching the 50% inhibitory rate, was calculated from the sigmoid approximate curve by a spreadsheet software Excel-Fit.

[1] = allylisothiocyanate 20 μM stimulation, FLIPR calcium assay
[2] = 293T cells transfected with human TRPA1, allylisothiocyanate 20 μM, concentration for 50% inhibitory rate

T1 sequence (O75762 whole entry): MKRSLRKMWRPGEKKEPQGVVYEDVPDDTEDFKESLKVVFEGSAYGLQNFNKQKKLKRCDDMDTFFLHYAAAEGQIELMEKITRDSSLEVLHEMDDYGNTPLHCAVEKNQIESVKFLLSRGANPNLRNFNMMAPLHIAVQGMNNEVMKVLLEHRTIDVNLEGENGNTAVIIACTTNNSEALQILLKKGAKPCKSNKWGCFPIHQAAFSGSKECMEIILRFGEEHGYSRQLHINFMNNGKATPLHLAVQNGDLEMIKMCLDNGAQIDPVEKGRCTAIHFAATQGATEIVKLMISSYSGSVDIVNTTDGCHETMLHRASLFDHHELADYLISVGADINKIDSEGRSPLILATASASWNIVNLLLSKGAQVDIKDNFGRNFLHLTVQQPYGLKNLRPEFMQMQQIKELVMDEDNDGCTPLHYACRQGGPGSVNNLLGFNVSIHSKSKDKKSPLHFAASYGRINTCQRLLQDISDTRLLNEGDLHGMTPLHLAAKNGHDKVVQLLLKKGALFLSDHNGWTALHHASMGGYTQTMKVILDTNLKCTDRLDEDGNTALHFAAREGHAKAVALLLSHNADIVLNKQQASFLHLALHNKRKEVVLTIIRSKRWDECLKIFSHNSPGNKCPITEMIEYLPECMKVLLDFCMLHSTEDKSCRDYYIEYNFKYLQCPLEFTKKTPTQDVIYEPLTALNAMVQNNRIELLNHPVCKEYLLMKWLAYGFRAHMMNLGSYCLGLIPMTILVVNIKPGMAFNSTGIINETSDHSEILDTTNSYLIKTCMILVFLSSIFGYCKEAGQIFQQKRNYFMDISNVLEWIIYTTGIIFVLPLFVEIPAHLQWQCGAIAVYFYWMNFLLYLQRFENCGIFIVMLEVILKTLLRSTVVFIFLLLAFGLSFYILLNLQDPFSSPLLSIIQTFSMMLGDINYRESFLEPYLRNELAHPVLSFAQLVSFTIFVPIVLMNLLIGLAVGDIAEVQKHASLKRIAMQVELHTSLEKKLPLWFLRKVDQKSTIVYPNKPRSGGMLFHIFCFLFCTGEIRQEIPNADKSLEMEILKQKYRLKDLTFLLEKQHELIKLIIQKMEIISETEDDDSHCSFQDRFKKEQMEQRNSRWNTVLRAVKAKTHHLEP

SMILES	IC50 [1]	IC50 [2]
CC(Oc1cccc(CNC(=O)[C@@H]2CCCN2S(=O)(=O)c2ccc(F)cc2)c1)c1ccccc1 (stereo in doubt) [Example 143, (2S)-1-(4-fluorophenyl)sulfonyl-N-[[3-[(1R)-1-phenylethoxy]phenyl]methyl]pyrrolidine-2-carboxamide]	0.19 µM	–
CC(Oc1cccc(CNC(=O)[C@@H]2CCCN2S(=O)(=O)c2ccc(F)cc2)c1)c1ccc(Cl)cc1 (stereo in doubt) [Example 145, (2S)-N-[[3-[(1R)-1-(4-chlorophenyl)ethoxy]phenyl]methyl]-1-(4-fluorophenyl)sulfonyl-pyrrolidine-2-carboxamide]	0.065 µM	–
O=C(NCc1cccc(Oc2ccc(C(F)(F)F)cc2)c1)[C@@H]1CC(F)CN1S(=O)(=O)c1ccc(F)cc1 (stereo in doubt) [Example 158, (2S,4R)-4-fluoro-1-(4-fluorophenyl)sulfonyl-N-[[3-[4-(trifluoromethyl)phenoxy]phenyl]methyl]pyrrolidine-2-carboxamide]	0.28 µM	–
O=C(NCc1ccc(Oc2ccccc2)cc1)[C@@H]1CCCN1S(=O)(=O)c1ccc(Cl)s1 [Example 1, (2S)-1-(5-chlorothiophene-2-sulfonyl)-N-[(4-phenoxyphenyl)methyl]pyrrolidine-2-carboxamide]	–	0.22 µM
O=C(NCc1ccc(Oc2ccc(C(F)(F)F)cc2)cc1)[C@@H]1CCCN1S(=O)(=O)c1ccc(Cl)s1 [Example 2]	–	0.21 µM
O=C(NCc1ccc(Oc2ccc(OC(F)(F)F)cc2)cc1)[C@@H]1CCCN1S(=O)(=O)c1ccc(Cl)s1 [Example 3]	–	0.088 µM
O=C(NCc1ccc(Oc2ccc(Cl)cc2)cc1)[C@@H]1CCCN1S(=O)(=O)c1ccc(Cl)s1 [Example 4, (2S)-N-{[4-(4-chlorophenoxy)phenyl]methyl}-1-(5-chlorothiophene-2-sulfonyl)pyrrolidine-2-carboxamide]	–	0.1 µM
O=C(NCc1ccc(Oc2ccc(F)cc2)cc1)[C@@H]1CCCN1S(=O)(=O)c1ccc(Cl)s1 [Example 5, (2S)-1-(5-chlorothiophene-2-sulfonyl)-N-{[4-(4-fluorophenoxy)phenyl]methyl)pyrrolidine-2-carboxamide]	–	0.13 µM
O=C(NCc1ccc(Oc2cccc(C(F)(F)F)c2)cc1)[C@@H]1CCCN1S(=O)(=O)c1ccc(Cl)s1 [Example 6, (2S)-1-(5-chlorothiophene-2-sulfonyl)-N-({4-[3-(trifluoromethyl)phenoxy]phenyl}methyl)pyrrolidine-2-carboxamide]	–	0.1 µM
O=C(NCc1ccc(Oc2cccc(OC(F)(F)F)c2)cc1)[C@@H]1CCCN1S(=O)(=O)c1ccc(Cl)s1 [Example 7, (2S)-1-(5-chlorothiophene-2-sulfonyl)-N-({4-[3-(trifluoromethoxy)phenoxy]phenyl}methyl)pyrrolidine-2-carboxamide]	–	0.081 µM
O=C(NCc1ccc(Oc2cccc(Cl)c2)cc1)[C@@H]1CCCN1S(=O)(=O)c1ccc(Cl)s1 [Example 8, (2S)-N-{[4-(3-chlorophenoxy)phenyl]methyl}-1-(5-chlorothiophene-2-sulfonyl)pyrrolidine-2-carboxamide]	–	0.1 µM
O=C(NCc1ccc(Oc2cccc(F)c2)cc1)[C@@H]1CCCN1S(=O)(=O)c1ccc(Cl)s1 [Example 9, (2S)-1-(5-chlorothiophene-2-sulfonyl)-N-{[4-(3-fluoro-phenoxy)phenyl]methyl}pyrrolidine-2-carboxamide]	–	0.17 µM
O=C(NCc1ccc(Oc2ccccc2C(F)(F)F)cc1)[C@@H]1CCCN1S(=O)(=O)c1ccc(Cl)s1 [Example 10, (2S)-1-(5-chlorothiophene-2-sulfonyl)-N-({4-[2-(trifluoro-methyl)phenoxy]phenyl}methyl)pyrrolidine-2-carboxamide]	–	0.45 µM
O=C(NCc1ccc(Oc2ccc(F)c(Cl)c2)cc1)[C@@H]1CCCN1S(=O)(=O)c1ccc(Cl)s1 [Example 11, (2S)-N-{[4-(3-chloro-4-fluoro-phenoxy)phenyl]methyl}-1-(5-chlorothiophene-2-sulfonyl)pyrrolidine-2-carboxamide]	–	0.2 µM
